From patent publication US12458021B2, “Microbiocidal derivatives” (SYNGENTA CROP PROTECTION AG, priority 2019, dated 2025)

Assays:
[1] = test system: Blumeria graminis f. sp. tritici (Erysiphe graminis f. sp. tritici); assay: Blumeria graminis f. sp. tritici / wheat / leaf disc preventative (powdery mildew on wheat); format: in vivo; details: foliar, wheat leaf segments cv. Kanzler, inoculated 1 day after application, assessed 6-8 days after application, read-out: control of Blumeria graminis f. sp. tritici (percent disease control compared to untreated)
Text: Example B4: Blumeria graminis f. sp. tritici (Erysiphe graminis f. sp. tritici)/Wheat/Leaf Disc Preventative (Powdery Mildew on Wheat) Wheat leaf segments cv. Kanzler are placed on agar in a multiwell plate (24-well format) and sprayed with the formulated test compound diluted in water. The leaf disks are inoculated by shaking powdery mildew infected plants above the test plates 1 day after application. […] […]-192.

[2] = test system: Magnaporthe grisea (Pyricularia oryzae); assay: whole plant or invertebrate; format: in vivo; details: foliar, read-out: control of Magnaporthe grisea (percent disease control compared to untreated)
[3] = test system: Glomerella lagenarium (Colletotrichum lagenarium); assay: Glomerella lagenarium (Colletotrichum lagenarium) / liquid culture (anthracnose); format: cell-based; details: Colletotrichum orbiculare, PDB potato dextrose broth, 24° C., 3-4 days after application, read-out: control of Glomerella lagenarium (inhibition of growth, photometric)
In short: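 Fungal growth inhibition measured photometrically 3-4 days post-application at 24° C. Spores were mixed directly into potato dextrose broth and dispensed onto test compound supplied in DMSO.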

[4] = test system: Alternaria solani; assay: Alternaria solani / tomato / leaf disc (early blight); format: in vivo; details: foliar, tomato leaf disks cv. Baby, inoculated 2 days after application, assessed 5-7 days after application, read-out: control of Alternaria solani (percent disease control compared to untreated)
Procedure: Example B1: Alternaria solani/Tomato/Leaf Disc (Early Blight) Tomato leaf disks cv. Baby are placed on agar in multiwell plates (24-well format) and sprayed with the formulated test compound diluted in water. The leaf disks are inoculated with a spore suspension of the fungus 2 days after application. The inoculated leaf disks are incubated at 23° C./21° C. […] […]-185.

[5] = test system: Monographella nivalis (Microdochium nivale); assay: Monographella nivalis (Microdochium nivale) / liquid culture (foot rot cereals); format: cell-based; details: PDB potato dextrose broth, 24° C., 4-5 days after application, read-out: control of Monographella nivalis (inhibition of growth, photometric)
In short: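 Growth inhibition measured by photometry 4-5 days post-application at 24° C. Compound was dispensed as DMSO solution, then PDB broth containing conidia from cryogenic storage was added.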

[6] = test system: Phaeosphaeria nodorum (Septoria nodorum); assay: Phaeosphaeria nodorum (Septoria nodorum) / wheat / leaf disc preventative (glume blotch); format: in vivo; details: Parastagonospora nodorum, foliar, wheat leaf segments cv. Kanzler, inoculated 2 days after application, assessed 5-7 days after application, read-out: control of Phaeosphaeria nodorum (percent disease control compared to untreated)
Procedure: Example B6: Phaeosphaeria nodorum (Septoria nodorum)/Wheat/Leaf Disc Preventative (Glume Blotch) Wheat leaf segments cv. Kanzler are placed on agar in a multiwell plate (24-well format) and sprayed with the formulated test compound diluted in water. The leaf disks are inoculated with a spore suspension of the fungus 2 days after application. The inoculated test leaf disks are incubated at 20° C. and 75% rh under a light regime of 12 h light/12 h darkness in a climate cabinet and the activity of a compound is assessed as percent disease control compared to untreated when an appropriate level of disease damage appears in untreated check leaf disks (5-7 days after application). […] […]-190.

[7] = test system: Puccinia recondita f. sp. tritici; assay: Puccinia recondita f. sp. tritici / wheat / leaf disc preventative (brown rust); format: in vivo; details: foliar, wheat leaf segments cv. Kanzler, inoculated 1 day after application, assessed 7-9 days after application, read-out: control of Puccinia recondita f. sp. tritici, preventative (percent disease control compared to untreated)
In short: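 Wheat leaf segments (cv. Kanzler) on agar were sprayed with formulated compound, then inoculated with spores 1 day later. Segments were incubated at 19 °C, 75% rh with 12 h light/dark. Percent disease control versus untreated was scored 7–9 days after application.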

[8] = test system: Botryotinia fuckeliana (Botrytis cinerea); assay: Botryotinia fuckeliana (Botrytis cinerea) / liquid culture (gray mould); format: cell-based; details: Vogels broth, 24° C., 3-4 days after application, read-out: control of Botryotinia fuckeliana (inhibition of growth, photometric)
Procedure: Example B2: Botryotinia fuckeliana (Botrytis cinerea)/Liquid Culture (Gray Mould) Conidia of the fungus from cryogenic storage are directly mixed into nutrient broth (Vogels broth). After placing a (DMSO) solution of test compound into a microtiter plate (96-well format), the nutrient broth containing the fungal spores is added. The test plates are incubated at 24° C. and the inhibition of growth is determined photometrically 3-4 days after application. […] […]-190.

[9] = test system: Mycosphaerella graminicola (Septoria tritici); assay: Mycosphaerella graminicola (Septoria tritici) / liquid culture (Septoria blotch); format: cell-based; details: Zymoseptoria tritici, PDB potato dextrose broth, 24° C., 4-5 days after application, read-out: control of Mycosphaerella graminicola (inhibition of growth, photometric)
In short: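 Fungal growth inhibition was read photometrically 4-5 days after application. Compound was dosed from a DMSO solution into liquid cultures of spores in potato dextrose broth, incubated at 24° C.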

[10] = test system: Pyrenophora teres; assay: Pyrenophora teres / barley / leaf disc preventative (net blotch); format: in vivo; details: foliar, barley leaf segments cv. Hasso, inoculated 2 days after application, assessed 5-7 days after application, read-out: control of Pyrenophora teres (disease control compared to untreated)
Procedure: Example B13: Pyrenophora teres/Barley/Leaf Disc Preventative (Net Blotch) Barley leaf segments cv. Hasso are placed on agar in a multiwell plate (24-well format) and sprayed with the formulated test compound diluted in water. The leaf segments are inoculated with a spore suspension of the fungus 2 days after application. The inoculated leaf segments are incubated at 20° C. and 65% rh under a light regime of 12 h light/12 h darkness in a climate cabinet and the activity of a compound is assessed as disease control compared to untreated when an appropriate level of disease damage appears in untreated check leaf segments (5-7 days after application). […] […]-185.

CC(C)(C)NC(=O)c1cccc(Nc2cc(F)cc(F)c2)n1 [Compound P-112, N-tert-butyl-6-(3,5-difluoroanilino)pyridine-2-carboxamide]
≥ 80%: pest or weed control at 200 ppm [1] | pest or weed control at 200 ppm [2] | inhibition at 20 ppm [3] | pest or weed control at 200 ppm [4] | inhibition at 20 ppm [5] | pest or weed control at 200 ppm [6] | pest or weed control at 200 ppm [7] | inhibition at 20 ppm [8] | inhibition at 20 ppm [9]

COc1cc(Nc2cc(F)cc(F)c2)nc(C(=O)NC(C)(C)C)c1 [Compound P-116, N-tert-butyl-6-(3,5-difluoroanilino)-4-methoxy-pyridine-2-carboxamide]
≥ 80%: inhibition at 20 ppm [3] | pest or weed control at 200 ppm [6] | pest or weed control at 200 ppm [10] | inhibition at 20 ppm [8]

CC1(NC(=O)c2cccc(Nc3cc(F)cc(F)c3)n2)CCCC1 [Compound P-119, 6-(3,5-difluoroanilino)-N-(1-methylcyclopentyl)pyridine-2-carboxamide]
≥ 80%: pest or weed control at 200 ppm [2] | inhibition at 20 ppm [3] | inhibition at 20 ppm [5] | pest or weed control at 200 ppm [7] | inhibition at 20 ppm [8] | inhibition at 20 ppm [9]

CC1(NC(=O)c2cccc(Nc3cc(F)nc(F)c3)n2)CCCC1 [Compound P-120, 6-[(2,6-difluoro-4-pyridyl)amino]-N-(1-methylcyclopentyl)pyridine-2-carboxamide]
≥ 80%: pest or weed control at 200 ppm [2] | inhibition at 20 ppm [3] | inhibition at 20 ppm [5] | pest or weed control at 200 ppm [7] | inhibition at 20 ppm [8] | inhibition at 20 ppm [9]

COc1ccc(Nc2ccc(C)c(Cl)c2)nc1C(=O)NCC(C)(C)C [Compound P-132, 6-(3-chloro-4-methyl-anilino)-N-(2,2-dimethylpropyl)-3-methoxy-pyridine-2-carboxamide]
≥ 80%: inhibition at 20 ppm [3] | inhibition at 20 ppm [5] | inhibition at 20 ppm [8] | inhibition at 20 ppm [9]

COc1ccc(Nc2cc(F)cc(Cl)c2)nc1C(=O)NCC(C)(C)C [Compound P-134, 6-(3-chloro-5-fluoro-anilino)-N-(2,2-dimethylpropyl)-3-methoxy-pyridine-2-carboxamide]
≥ 80%: pest or weed control at 200 ppm [1] | inhibition at 20 ppm [3] | inhibition at 20 ppm [5] | pest or weed control at 200 ppm [10] | inhibition at 20 ppm [8] | inhibition at 20 ppm [9]

COc1ccc(Nc2ccc(C)c(Cl)c2)nc1C(=O)NC(C)(C)C [Compound P-151, N-tert-butyl-6-(3-chloro-4-methyl-anilino)-3-methoxy-pyridine-2-carboxamide]
≥ 80%: pest or weed control at 200 ppm [2] | inhibition at 20 ppm [3] | inhibition at 20 ppm [5] | inhibition at 20 ppm [8] | inhibition at 20 ppm [9]

COc1ccc(Nc2cccc(Cl)c2)nc1C(=O)NC(C)(C)C [Compound P-155, N-tert-butyl-6-(3-chloroanilino)-3-methoxy-pyridine-2-carboxamide]
≥ 80%: pest or weed control at 200 ppm [2] | inhibition at 20 ppm [3] | inhibition at 20 ppm [5] | pest or weed control at 200 ppm [7] | pest or weed control at 200 ppm [10] | inhibition at 20 ppm [8] | inhibition at 20 ppm [9]

COc1ccc(Nc2cc(F)cc(F)c2)nc1C(=O)NC(C)C(C)(C)C (centres unmarked) [Compound P-170, 6-(3,5-difluoroanilino)-3-methoxy-N-(1,2,2-trimethylpropyl)pyridine-2-carboxamide]
≥ 80%: pest or weed control at 200 ppm [1] | inhibition at 20 ppm [3] | pest or weed control at 200 ppm [4] | inhibition at 20 ppm [5] | inhibition at 20 ppm [8] | inhibition at 20 ppm [9]

COc1ccc(Nc2cc(F)nc(F)c2)nc1C(=O)NC(C)(C)C(C)C [Compound P-173, 6-[(2,6-difluoro-4-pyridyl)amino]-3-methoxy-N-(1,1,2-trimethylpropyl)pyridine-2-carboxamide]
≥ 80%: pest or weed control at 200 ppm [1] | inhibition at 20 ppm [3] | pest or weed control at 200 ppm [4] | inhibition at 20 ppm [5] | pest or weed control at 200 ppm [7] | inhibition at 20 ppm [8] | inhibition at 20 ppm [9]

Cc1ccc(Nc2cc(F)cc(F)c2)nc1C(=O)NC1CCC1(C)C (centres unmarked) [Compound P-175, 6-(3,5-difluoroanilino)-N-(2,2-dimethylcyclobutyl)-3-methyl-pyridine-2-carboxamide]
≥ 80%: inhibition at 20 ppm [3] | inhibition at 20 ppm [5] | inhibition at 20 ppm [8] | inhibition at 20 ppm [9]

COc1ccc(N(C(C)=O)c2cc(F)cc(F)c2)nc1C(=O)NC1CCC1(C)C (centres unmarked) [Compound P-189, 6-(N-acetyl-3,5-difluoro-anilino)-N-(2,2-dimethylcyclobutyl)-3-methoxy-pyridine-2-carboxamide]
≥ 80%: pest or weed control at 200 ppm [1] | pest or weed control at 200 ppm [2] | inhibition at 20 ppm [3] | inhibition at 20 ppm [5] | pest or weed control at 200 ppm [6] | inhibition at 20 ppm [8] | inhibition at 20 ppm [9]

COc1ccc(Nc2cc(F)cc(F)c2Cl)nc1C(=O)NC(C)(C)C [Compound P-190, N-tert-butyl-6-(2-chloro-3,5-difluoro-anilino)-3-methoxy-pyridine-2-carboxamide]
≥ 80%: inhibition at 20 ppm [3] | inhibition at 20 ppm [5] | pest or weed control at 200 ppm [6] | pest or weed control at 200 ppm [7] | inhibition at 20 ppm [8] | inhibition at 20 ppm [9]
